Source: ChEMBL document CHEMBL5291721, “A preclinical secondary pharmacology resource illuminates target-adverse drug reaction associations of marketed drugs” (Nat Commun, 2023)

Tests used:
[1] = biological target: T1, B2 bradykinin receptor (Homo sapiens, UniProt P30411)
T1 sequence (P30411 whole entry): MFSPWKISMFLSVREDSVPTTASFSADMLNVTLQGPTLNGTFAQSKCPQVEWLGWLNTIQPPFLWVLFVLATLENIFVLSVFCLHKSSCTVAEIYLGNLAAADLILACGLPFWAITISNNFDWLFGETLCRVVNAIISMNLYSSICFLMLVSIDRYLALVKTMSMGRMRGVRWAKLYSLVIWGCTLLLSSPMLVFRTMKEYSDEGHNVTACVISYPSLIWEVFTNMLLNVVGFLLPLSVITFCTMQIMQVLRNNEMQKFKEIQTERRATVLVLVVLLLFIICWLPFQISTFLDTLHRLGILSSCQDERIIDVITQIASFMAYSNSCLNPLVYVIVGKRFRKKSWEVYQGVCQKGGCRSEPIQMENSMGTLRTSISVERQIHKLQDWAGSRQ

[2] = biological target: T2, Alpha-2B adrenergic receptor (Homo sapiens, UniProt P18089)
T2 sequence (P18089 whole entry): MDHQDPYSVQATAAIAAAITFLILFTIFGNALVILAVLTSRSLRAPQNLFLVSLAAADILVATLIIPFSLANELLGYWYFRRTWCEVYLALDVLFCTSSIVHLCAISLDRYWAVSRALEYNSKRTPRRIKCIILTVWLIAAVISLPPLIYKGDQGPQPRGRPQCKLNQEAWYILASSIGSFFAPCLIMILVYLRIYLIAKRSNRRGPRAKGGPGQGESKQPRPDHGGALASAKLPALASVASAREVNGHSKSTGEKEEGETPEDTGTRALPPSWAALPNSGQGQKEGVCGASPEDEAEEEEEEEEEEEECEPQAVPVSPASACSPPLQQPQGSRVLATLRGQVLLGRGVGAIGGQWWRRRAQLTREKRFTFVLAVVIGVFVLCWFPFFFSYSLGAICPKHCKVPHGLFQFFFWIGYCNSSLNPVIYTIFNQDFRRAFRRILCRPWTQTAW

[3] = biological target: T3, Amine oxidase [flavin-containing] A (Homo sapiens, UniProt P21397); type: functional
T3 sequence (P21397 whole entry): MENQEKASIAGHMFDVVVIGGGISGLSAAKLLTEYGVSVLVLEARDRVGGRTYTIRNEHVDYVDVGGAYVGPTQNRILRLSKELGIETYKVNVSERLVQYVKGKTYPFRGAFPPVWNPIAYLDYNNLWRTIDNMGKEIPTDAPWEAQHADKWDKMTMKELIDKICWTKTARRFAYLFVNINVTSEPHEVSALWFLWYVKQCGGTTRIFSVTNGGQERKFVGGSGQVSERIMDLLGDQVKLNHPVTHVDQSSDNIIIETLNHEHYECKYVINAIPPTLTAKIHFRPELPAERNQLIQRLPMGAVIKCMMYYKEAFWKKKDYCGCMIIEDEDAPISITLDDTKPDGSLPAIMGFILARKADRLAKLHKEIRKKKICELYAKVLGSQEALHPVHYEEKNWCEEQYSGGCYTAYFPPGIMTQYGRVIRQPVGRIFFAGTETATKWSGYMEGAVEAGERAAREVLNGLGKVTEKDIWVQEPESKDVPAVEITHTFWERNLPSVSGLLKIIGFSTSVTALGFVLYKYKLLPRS

[4] = biological target: T4, Muscarinic acetylcholine receptor M2 (Homo sapiens, UniProt P08172)
T4 sequence (P08172 whole entry): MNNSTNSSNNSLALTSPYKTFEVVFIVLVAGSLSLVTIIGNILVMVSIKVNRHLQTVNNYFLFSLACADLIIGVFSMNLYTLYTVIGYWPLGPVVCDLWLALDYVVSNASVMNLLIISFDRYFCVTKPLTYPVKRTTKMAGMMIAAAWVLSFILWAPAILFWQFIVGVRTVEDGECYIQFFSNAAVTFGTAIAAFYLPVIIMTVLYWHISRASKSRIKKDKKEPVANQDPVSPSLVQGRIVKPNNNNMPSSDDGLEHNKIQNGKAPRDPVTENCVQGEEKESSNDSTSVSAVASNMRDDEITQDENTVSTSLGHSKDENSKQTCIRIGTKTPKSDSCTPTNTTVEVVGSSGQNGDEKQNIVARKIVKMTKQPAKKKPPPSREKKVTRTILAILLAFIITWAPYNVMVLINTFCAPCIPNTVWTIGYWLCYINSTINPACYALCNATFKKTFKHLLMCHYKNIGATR
Also: assay procedure not described here.

| SMILES | AC50 [1] | AC50 [2] | AC50 [3] | AC50 [4] |
| --- | --- | --- | --- | --- |
| C[N+]1(C)CCC(OC(=O)C(O)(c2ccccc2)C2CCCC2)C1 (stereo not drawn) [GLYCOPYRRONIUM BROMIDE] | > 30 µM |  |  |  |
| CN1C(C(=O)Nc2ccccn2)=C(O)c2sc(Cl)cc2S1(=O)=O [LORNOXICAM] | > 30 µM | > 10 µM |  |  |
| Cc1cccc(Nc2ccccc2C(=O)O)c1C [MEFENAMIC ACID] | > 10 µM |  | > 30 µM | > 30 µM |
| Cc1cn([C@H]2C=C[C@@H](CO)O2)c(=O)[nH]c1=O [STAVUDINE] | > 30 µM |  | > 30 µM | > 30 µM |
| CCC(C)n1ncn(-c2ccc(N3CCN(c4ccc(OCC5COC(Cn6cncn6)(c6ccc(Cl)cc6Cl)O5)cc4)CC3)cc2)c1=O (stereo not drawn) [ITRACONAZOLE] | > 30 µM |  |  |  |
| Clc1ccc2nsnc2c1NC1=NCCN1 [TIZANIDINE] | > 30 µM | 0.292 µM |  |  |
| CCC1=C(C)CN(C(=O)NCCc2ccc(S(=O)(=O)NC(=O)N[C@H]3CC[C@H](C)CC3)cc2)C1=O [GLIMEPIRIDE] |  |  | > 30 µM | > 30 µM |
| O=P1(NCCCl)OCCCN1CCCl (stereo not drawn) [IFOSFAMIDE] | > 30 µM |  |  |  |
| O=C(O[C@H]1C[C@H]2CC[C@@H](C1)[N+]21CCCC1)C(O)(c1ccccc1)c1ccccc1 [TROSPIUM] | > 30 µM | > 30 µM |  |  |
| C[N+](C)(C)CCO [CHOLINE] |  |  | > 30 µM | > 30 µM |
| COc1cc(NC(C)CCCN)c2ncccc2c1 (stereo not drawn) [PRIMAQUINE] | > 30 µM |  |  |  |
| CN(C)/N=N/c1[nH]cnc1C(N)=O [DACARBAZINE] | > 10 µM |  |  |  |
| CC[C@H]1OC(=O)[C@H](C)[C@@H](O[C@H]2C[C@@](C)(OC)[C@@H](O)[C@H](C)O2)[C@H](C)[C@@H](O[C@@H]2O[C@H](C)C[C@H](N(C)C)[C@H]2O)[C@](C)(O)C[C@@H](C)CN(C)[C@H](C)[C@@H](O)[C@]1(C)O [AZITHROMYCIN] | > 30 µM |  | > 30 µM | > 30 µM |
| CCc1oc2ccccc2c1C(=O)c1cc(I)c(O)c(I)c1 [BENZIODARONE] |  |  | > 30 µM | > 30 µM |
| CCCCN1C[C@H](O)[C@@H](O)[C@H](O)[C@H]1CO | > 30 µM | > 30 µM |  |  |
| Clc1ccc(C(c2ccccc2Cl)C(Cl)Cl)cc1 (stereo not drawn) [MITOTANE] | > 10 µM |  |  |  |
| COc1ccc(CC(C)(C)NC[C@H](O)c2cc(O)cc3c2OCC(=O)N3)cc1 [OLODATEROL] |  | > 30 µM |  |  |
| CC(C)(S)[C@@H](N)C(=O)O [PENICILLAMINE] |  |  | > 30 µM | > 30 µM |
| COc1cc2nc(N(C)CCCNC(=O)C3CCCO3)nc(N)c2cc1OC (stereo not drawn) [ALFUZOSIN] | > 30 µM | 8.9 µM |  |  |
| CN1C(=O)CCS(=O)(=O)C1c1ccc(Cl)cc1 (stereo not drawn) [CHLORMEZANONE] | > 10 µM | > 10 µM |  |  |
| Cc1cn([C@H]2C[C@H](N=[N+]=[N-])[C@@H](CO)O2)c(=O)[nH]c1=O [ZIDOVUDINE] | > 30 µM |  | > 30 µM | > 30 µM |
| CCCSc1ccc2nc(NC(=O)OC)[nH]c2c1 [ALBENDAZOLE] | > 10 µM |  |  |  |
| C[C@]12CC[C@@H]3c4ccc(O)cc4CC[C@H]3[C@@H]1C[C@@H](O)[C@@H]2O [ESTRIOL] |  |  | > 30 µM | > 30 µM |
| CC(=O)NCCCS(=O)(=O)O [ACAMPROSATE] | > 30 µM | > 30 µM |  |  |
| COCc1c(C(C)C)nc(C(C)C)c(/C=C/[C@@H](O)C[C@@H](O)CC(=O)O)c1-c1ccc(F)cc1 [CERIVASTATIN] |  |  | > 30 µM | > 30 µM |
| NS(=O)(=O)Cc1noc2ccccc12 [ZONISAMIDE] | > 10 µM | > 10 µM |  |  |
| COc1ccccc1OCC(O)CN1CCN(CC(=O)Nc2c(C)cccc2C)CC1 (stereo not drawn) [RANOLAZINE] | > 30 µM | 17 µM |  |  |
| CC1=C(C(=O)O)N2C(=O)[C@@H](NC(=O)[C@H](N)c3ccccc3)[C@H]2SC1 [CEPHALEXIN ANHYDROUS] | > 30 µM |  |  |  |
| Nc1ccn([C@H]2CC[C@@H](CO)O2)c(=O)n1 [ZALCITABINE] | > 10 µM | > 30 µM |  |  |
